In this test the test system is Helminthosporium teres. Kind of test: preventive fungicidal activity on Helminthosporium teres (barley leaves). Particulars: barley leaves cv. Arna, 12 days, scale 100 (healthy plant) to 0 (completely infected plant). It is filed as in vivo. How it is done:
Determination of the preventive fungicidal activity on Helminthosporium teres. Barley leaves cv. Arna, cultivated in a vase in a conditioned environment, were treated by spraying both sides with the products being tested (compounds 1 and 2) in a 20% hydroacetonic solution of acetone (vol./vol.). After remaining 2 days in the conditioned environment at 20° C. and 70% R.H., the plants were sprayed on both sides of the leaves with an aqueous suspension of Helminthosporium teres (250.000 conidii per cc.). After 24 hours in a humidity saturated atmosphere, at 21° C., the plants were kept in a conditioned environment for the incubation of the fungus. At the end of this period (12 days), the gravity of infection was estimated by observation, with a scale of indexes ranging from 100 (healthy plant) to 0 (completely infected plant).

Structures are written as SMILES.

Consider `CC(Cc1cccc(C(=O)c2ccccc2)c1)CN1C[C@@H](C)O[C@@H](C)C1` (stereo partly shown) [Compound 1, 4-[3-(3-benzoylphenyl)-2-methylpropyl]-2,6-dimethylmorpholine], for which the “% Control Helminthosporium” value is, setting by setting: (dosage 125 ppm) 100%; (dosage 500 ppm) 100%.

Take `CC(Cc1cccc(C(=O)c2ccc(Cl)cc2)c1)CN1C[C@@H](C)O[C@@H](C)C1` (stereo partly shown) [Compound 2, 4-[3-(3-(4-chlorobenzoyl)phenyl)-2-methylpropyl]-2,6-dimethylmorpholine]: the “% Control Helminthosporium” value is 100% (dosage 125 ppm) and 100% (dosage 500 ppm).

The record behind these values is US5464836A, “Benzophenones having an antifungal activity” (Ministero dell'Universita` e della Ricerca Scientifica e …, priority 1991, dated 1995).
